Test results from paper PMC9312238, “Novel Organoselenium Redox Modulators with Potential Anticancer, Antimicrobial, and Antioxidant Activities” (Antioxidants, 2022).
In brackets after ≈: the same amount, converted by molar mass. Where two headings read alike, the source gives them in different places.

What was measured:
HepG2 cells = assay: cells; type: cell-based, human; conditions: for IC50: MTT, 24 h incubation, HepG2 cells, read-out: HepG2 IC50; for HepG2 TI (IC50 WI-38 / IC50 HepG2): therapeutic index, ratio of WI-38 IC50 to HepG2 IC50
Method: Cells were obtained from the ATCC Company (VACSERA), Cairo, Egypt. MTT assay were performed according to the literature method. More details are in the Supporting Information.
Recently, OSe compounds gained much attention as possible drug candidates due to their various pharmacological properties. Our group has reported several OSe candidates with potential anticancer, antimicrobial, and antioxidant activities. Therefore, the anticancer attributes of the newly prepared OSe compounds were estimated using the MTT assay against MCF-7 and HepG2 and compared with their respective cytotoxicity in WI-38 primary cells. The anthracycline drug doxorubicin was used as the standard. The minimal inhibition concentration required to kill 50% of the cells (IC50) was calculated from dose-response curves presented in Table 1. Moreover, the therapeutic index (TI) was also calculated (according to Equation (1)), which is considered a measure of the selectivity and safety of the synthesized compounds. (1) TI=IC50 for the normal WI38 cells/IC50 for the cancer cells […]
1.1. The biological assays
1.1.1. The anticancer activity
The breast adenocarcinoma (MCF-7), Hepatocellular carcinoma (HEPG-2), and nor-mal fibroblast (WI-38) cells were obtained from ATCC via Holding company for biological products and vaccines (VACSERA), Cairo, Egypt. The reagents RPMI-1640 medium, MTT, DMSO, and fetal bovine serum was obtained from Sigma Aldrich. Dulbecco’s modified Eagle’s medium was used as the culture medium for the cells, and the cytotoxicity was evaluated using the reported MTT assay. Doxorubicin was used as the positive reference, and the IC50 values were obtained from the corresponding dose-response curve.
This colorimetric assay is based on converting the yellow tetrazolium bromide (MTT) to a purple formazan derivative by mitochondrial succinate dehydrogenase in viable cells.
Cell lines were cultured in RPMI-1640 medium with 10% fetal bovine serum. Antibiotics added were 100 units/ml penicillin and 100µg/ml streptomycin at 37 C in a 5% Co2 incu-bator. The cell lines were seeded in a 96-well plate at a density of 1.0x10^4 cells/well. at 37 C for 48 h under 5% Co2. After incubation, the cells were treated with different concentra-tions of compounds and incubated for 24 h. After 24 h of drug treatment, 20 µl of MTT solution at 5mg/ml was added and incubated for 4 h. Finally, dimethyl sulfoxide (DMSO) in the volume of 100 µl is added to each well to dissolve the purple formazan formed. The colorimetric assay is measured and recorded at an absorbance of 570 nm using a plate reader (EXL 800, USA). The percentage of the relative cell viability was calculated as (A570 of treated samples/A570 of the untreated sample) X 100. […]
(§1) Inhibition%= (Ablank-Asample)/(Ablank)*100. (1)

Escherichia coli = assay: Agar diffusion assay, E. coli; type: cell-based; set-up: E. coli A% (activity index): concentration or dose not given beside the values; conditions: for zone of inhibition at 20 µM: Escherichia coli, read-out: E. coli IZD (mm); for E. coli A% (activity index): zone of test compound / zone of standard (ampicillin) x 100
Staphylococcus aureus [1] = assay: Agar diffusion assay, S. aureus; type: cell-based; set-up: S. aureus A% (activity index): concentration or dose not given beside the values; conditions: for zone of inhibition at 20 µM: Staphylococcus aureus, read-out: S. aureus IZD (mm); for S. aureus A% (activity index): zone of test compound / zone of standard (ampicillin) x 100
Method: (§2) The antimicrobial activities of the OSe compounds were evaluated against C. albicans yeast, as well as E. coli and S. bacteria, employing the agar well diffusion assay. Furthermore, the MICs (in µM) were determined by the microdilution method according to the reported protocol. More details are in the Supporting Information.
(§3) Compounds were evaluated for their antimicrobial activity against the Gram-negative bacteria Escherichia coli (E. coli) and the Gram-positive bacteria Staphylococcus aureus (S. aureus), as well as the Candida albicans (C. albicans) fungal strain, using the agar diffusion assay. Ampicillin and clotrimazole were used as standards. Indeed, the antimicrobial properties of the OSe compounds were also obtained from the activity index percentage (A%) according to Equation (2). (2) A%=Zone of inhibition by test compound diametre/Zone of inhibition by standard diametre×100 . […]
(§4) 1.1.1. The antimicrobial activity
(§5) The antimicrobial activities of the OSe compounds were evaluated against C. albicans yeast as well as E. coli gram-negative and S. aureus gram-positive bacteria employing the agar well diffusion assay. Briefly, a concentration of 1 mM was prepared for each compound by dissolving in DMSO. Paper discs of standard size […] were steri-lized in an autoclave and soaked in 20 µL of the test compounds, and placed in the Petri dishes, which in turn contain a nutrient media (agar 20 g, peptone 5 g, and beef extract 3 g) seeded with the dedicated strain. Incubation lasted for 24 h at 36
(§6) Furthermore, the MICs (in µM) were determined by the microdilution method according to the reported protocol. […]
as §1

Candida albicans = assay: microbe, parasite or virus in culture; type: cell-based; set-up: C. albicans A% (activity index): concentration or dose not given beside the values; conditions: for zone of inhibition at 20 µM: Candida albicans, read-out: C. albicans IZD (mm); for C. albicans A% (activity index): zone of test compound / zone of standard (clotrimazole) x 100
Method: as §2, §3, §4
The antimicrobial activities of the OSe compounds were evaluated against C. albicans yeast as well as E. coli gram-negative and S. aureus gram-positive bacteria employing the agar well diffusion assay. […]
compound by dissolving in DMSO. […]
Petri dishes, which in turn contain a nutrient media (agar 20 g, peptone 5 g, and beef extract 3 g) seeded with the dedicated strain. Incubation lasted for 24 h at 36
as §6, §1

Staphylococcus aureus [2] = assay: MIC by microdilution, S. aureus; type: cell-based
Method: as §2, with “Information. […]” for “Information.”
as §4, §5, §6, §1

[3] = inhibition zone diameter, six-mm disks soaked with 20 μM of compound

Compound	IC50 (HepG2 cells; Homo sapiens)	HepG2 TI (IC50 WI-38 / IC50 HepG2) (HepG2 cells)	zone of inhibition at 20 µM (Escherichia coli; [3])	E. coli A% (activity index) (Escherichia coli)	zone of inhibition at 20 µM (Staphylococcus aureus [1]; [3])	S. aureus A% (activity index) (Staphylococcus aureus [1])	zone of inhibition at 20 µM (Candida albicans; [3])	C. albicans A% (activity index) (Candida albicans)	MIC (Staphylococcus aureus [2]; Staphylococcus aureus, read-out: MIC (μM) S. aureus)	IC50 (HepG2 cells)	E. coli IZD (mm) (Escherichia coli; [3])	S. aureus IZD (mm) (Staphylococcus aureus [1]; [3])	C. albicans IZD (mm) (Candida albicans; [3])	MIC (μM) S. aureus (Staphylococcus aureus [2]; microdilution)
O=C(C[Se]c1ccc(N2C(=O)CCC2=O)cc1)Nc1ccccc1 [Compound 14, 2-((4-(2,5-dioxopyrrolidin-1-yl)phenyl)selanyl)-N-phenylacetamide]	12.6 ± 1 µM	5	13 mm	57%	14 mm	67%	15 mm	63%						
Nc1ccc([Se]CC(=O)N[C@@H](Cc2c[nH]c3ccccc23)C(=O)O)cc1 [Compound 6, (2-((4-aminophenyl)selanyl)acetyl)tryptophan]	8.86 ± 0.7 µM	3.2	17 mm	74%	18 mm	86%	20 mm	83%	2 µM (≈ 0.833 µg/mL)					
2-((4-(2-(3-hydroxynaphthalen-1(4H)-ylidene)hydrazinyl)phenyl)selanyl)-N-phenylacetamide [Compound 9]		5.3		87%		91%		88%		7.48 ± 0.6 µM	20 mm	19 mm	21 mm	1 µM
O=C(O)CCC(=O)Nc1ccc([Se]CC(=O)Nc2ccccc2)cc1 [Compound 11, 4-oxo-4-((4-((2-oxo-2-(phenylamino)ethyl)selanyl)phenyl)amino)butanoic acid]	26.7 ± 1.9 µM	2.5	12 mm	52%	13 mm	62%	13 mm	54%						
Nc1ccc([Se]CC(=O)Nc2ccccc2)cc1 [Compound 4, 2-((4-aminophenyl)selanyl)-N-phenylacetamide]	18.3 ± 1.3 µM	2.9	14 mm	61%	15 mm	71%	13 mm	54%						
C[Se]c1ccc(NC(=O)CCC(=O)O)cc1 [Compound 16, 4-((4-(methylselanyl)phenyl)amino)-4-oxobutanoic acid]	32.6 ± 2.3 µM	0.7	10 mm			43%	12 mm	50%						
C[Se]c1ccc(NC(=O)C=CC(=O)O)cc1 [Compound 15, 4-((4-(methylselanyl)phenyl)amino)-4-oxobut-2-enoic acid]	9.94 ± 0.8 µM	2	15 mm	65%	15 mm	71%	16 mm	67%						
CCOc1ccc(NC(=O)C[Se]c2ccc(N)cc2)cc1 [Compound 5, 2-((4-aminophenyl)selanyl)-N-(4-ethoxyphenyl)acetamide]	> 100 µM		10 mm	44%	12 mm	57%	8 mm	33%						
